Assay results taken from patent EP2356213B1, “STEM CELL AGGREGATE SUSPENSION COMPOSITIONS AND METHODS FOR DIFFERENTIATION THEREOF” (VIACYTE, INC., priority 2008, dated 2010).
Entries after “also recorded” stand apart in the source; their conditions may differ.

What was measured:
[1] = tested on: pancreatic epithelial and endocrine type cells; experiment: Re-aggregation of dissociated stage 4 or stage 5 adherent cultures with ROCK inhibitor; format: cell-based, human; settings: 10µM
Procedure: Adherent cultures at either stage 4 (about d10 - d14 into the differentiation protocol; pancreatic epithelial and endocrine type cells) or stage 5 (about day 16 to day 30 into the differentiation protocol; endocrine precursor and endocrine cells) were similarly dissociated into single cells, counted, and pelleted. The cell pellet was then resuspended in DMEM CMRL supplemented Pen/Strep and Glutamax, and IX B27-supplement and DNase (50-100 µg/ml, Roche Diagnostics) and 0-2% FBS. […] Cells were equally distributed into 6-well plates and placed on a rotating platform at 100 rpm to 140 rpm form 4 hours to overnight substantially as described above.

BG02 cells = experiment: Suspension cultures with and without an apoptosis inhibitor, cell counting; format: cell-based, human
Procedure: To attenuate the loss of cells after initial passaging in suspension, an inhibitor of apoptosis was added to the medium. Cells were passaged as in Example 12, except that Y-27632, an inhibitor of p160-Rho-associated coiled-coil kinase (ROCK), was added to the medium.
Suspension aggregates of BG02 cells were formed by seeding 2x10^6 single cells in 6-well dishes in 3 mL DC-HAIF medium, at 100 rpm on a rotating platform in an incubator (Table 2, Experiment A). 10 µM Y27632 ROCK inhibitor was added to test wells for the course of the experiment and the cultures observed daily and counted after 24 hours (day 1) and after 4 or 5 days. […] Cell counting confirmed that more viable cells were present in the presence of inhibitor (Table 2, Experiment A). This difference in cell number persisted throughout the course of the culture period, with more cells also observed on day 4, compared to cultures without inhibitor. As with previous suspension culture experiments, cells exposed to Y27632 could also be serially passaged, and maintained in an undifferentiated state (not shown).
As previous experiments had shown that growth rates of cells in suspension and adherent culture were similar after the initial 24 hours, an experiment was performed where Y27632 was removed after this initial period (Table 2, Experiment B). […] 1.4x10^7 (+Y27632) and 1.8x107 (+/-Y27632) viable cells were generated when inhibitor was present compared to 3.9x10^6 cells in untreated cultures. This analysis confirmed that Y27632 had the largest impact during the first 24 hours of suspension hESC culture.
Because of the enhanced survival and aggregation observed in the presence of Y27632, an experiment was performed to examine if it was possible to reduce the number of cells used to seed suspension cultures (Table 2, Experiment C). […] To determine if addition of a ROCK inhibitor would allow cell seeding at lower densities, a range of cell concentrations (from about 2x10^6 total cells down to about 1x10^5 total cells was used to seed suspension cultures in 6-well trays cells in 3 mL DC-HAIF. 10 µM Y27632 was added to all conditions, and the cell number and viability assessed on day 5. Successful aggregation and expansion was observed even at low seeding densities. An approximately 13 fold expansion of viable cells was observed even cultures that were only seeded with 1x10^5 cells. Inhibition of ROCK with Y27632 therefore facilitated initial survival of hESCs at much lower densities in this suspension system. Table 2 - Suspension Cultures with and without an Apoptosis Inhibitor

ES cells = experiment: Suspension cultures in various media, cell counting; format: cell-based; settings: added to HAIF, HAI, HI
Procedure: To determine if suspensions of ES cells could be cultured in the absence of FGF2 and/or Activin A, ES cells were cultured in a variety of media, with and without these factors. […] In addition, the cells in each media were successfully passaged with no morphological signs of differentiation. Table 3 - Suspension Cultures in Various Media

BGOlv cells = experiment: Effect of ErbB tyrosine kinase inhibitors on proliferation of BG01v hESCs (alkaline phosphatase staining after 5 days); format: cell-based
Procedure: The EGF domain family of ligands bind to the ErbB family of receptor tyrosine kinases. To examine the effect of known inhibitors of ErbB tyrosine kinases in hESCs, BGOlv cells were plated in 6 well trays on MATRIGEL™ diluted at 1:1000, in defined culture medium (DC) containing 100 ng/mL LongR3-IGFl, 8 ng/mL FGF2 and 1 ng/mL Activin A. On the next day, DMSO (carrier control), 50 nM-20 µM AG1478 (an ErbB1 inhibitor), or 100 nM-20 µM AG879 (an ErbB2 inhibitor) was added with fresh medium. The cells were cultured for an additional 5 days, with daily media changes. The cultures were then fixed and stained for alkaline phosphatase activity.

R1 mouse ES cells = experiment: Effect of ErbB1/ErbB2 inhibitors on proliferation of mouse ES cells (alkaline phosphatase staining, 8 days); format: cell-based
Procedure: AG1478 and AG879 were used to examine the role of HRG/ErbB signaling in mouse ES cells. R1 mouse ES cells were maintained in standard conditions in DMEM, 10% FBS, 10% KSR, 0.5 U/mL penicillin, 0.5 U/mL streptomycin, 1xNEAA, 1 mM sodium pyruvate, 1000 U/mL LIF (ESGRO), 0.1 mM β-ME, and were passaged with 0.5% trypsin/EDTA. 2x10^5 cells/well were plated in 6 well trays on MATRIGEL™ diluted at 1:1000. The day after plating, DMSO (carrier control), 1-50 µM AG1478, or 1-50 µM AG879 was added with fresh medium. The cells were cultured an additional 8 days, with daily media changes. The cultures were then fixed and stained for alkaline phosphatase activity.

BG02 hESCs = experiment: Proliferation of hESCs in conditioned medium with AG825; format: cell-based, human
Description: (§1) Colony and cell-counting assays confirmed that LongR3-IGFl and HRG played the major roles in self-renewal and proliferation in the context of one of the embodiments of the present invention (Fig. 6D, 6E). Phosphorylation of IGF1R, IR, […], ErbB2, and ErbB3 was also observed in both steady-state DC-HAIF cultures, and in starved cultures that were pulsed with DC-HAIF (Fig. 6F).

ErbB2 = biological target: T1, ErbB2 (Homo sapiens, UniProt P04626); experiment: Western blotting of ErbB2 autophosphorylation in starved/heregulin pulsed hESCs; format: cell-based; settings: starved/heregulin (HRG) pulsed hESCs in DC-HAIF
T1 construct: endogenous in cells; host or cells: human embryonic stem cells (hESCs) growing in DC-HAIF
T1 sequence (P04626 23-1255): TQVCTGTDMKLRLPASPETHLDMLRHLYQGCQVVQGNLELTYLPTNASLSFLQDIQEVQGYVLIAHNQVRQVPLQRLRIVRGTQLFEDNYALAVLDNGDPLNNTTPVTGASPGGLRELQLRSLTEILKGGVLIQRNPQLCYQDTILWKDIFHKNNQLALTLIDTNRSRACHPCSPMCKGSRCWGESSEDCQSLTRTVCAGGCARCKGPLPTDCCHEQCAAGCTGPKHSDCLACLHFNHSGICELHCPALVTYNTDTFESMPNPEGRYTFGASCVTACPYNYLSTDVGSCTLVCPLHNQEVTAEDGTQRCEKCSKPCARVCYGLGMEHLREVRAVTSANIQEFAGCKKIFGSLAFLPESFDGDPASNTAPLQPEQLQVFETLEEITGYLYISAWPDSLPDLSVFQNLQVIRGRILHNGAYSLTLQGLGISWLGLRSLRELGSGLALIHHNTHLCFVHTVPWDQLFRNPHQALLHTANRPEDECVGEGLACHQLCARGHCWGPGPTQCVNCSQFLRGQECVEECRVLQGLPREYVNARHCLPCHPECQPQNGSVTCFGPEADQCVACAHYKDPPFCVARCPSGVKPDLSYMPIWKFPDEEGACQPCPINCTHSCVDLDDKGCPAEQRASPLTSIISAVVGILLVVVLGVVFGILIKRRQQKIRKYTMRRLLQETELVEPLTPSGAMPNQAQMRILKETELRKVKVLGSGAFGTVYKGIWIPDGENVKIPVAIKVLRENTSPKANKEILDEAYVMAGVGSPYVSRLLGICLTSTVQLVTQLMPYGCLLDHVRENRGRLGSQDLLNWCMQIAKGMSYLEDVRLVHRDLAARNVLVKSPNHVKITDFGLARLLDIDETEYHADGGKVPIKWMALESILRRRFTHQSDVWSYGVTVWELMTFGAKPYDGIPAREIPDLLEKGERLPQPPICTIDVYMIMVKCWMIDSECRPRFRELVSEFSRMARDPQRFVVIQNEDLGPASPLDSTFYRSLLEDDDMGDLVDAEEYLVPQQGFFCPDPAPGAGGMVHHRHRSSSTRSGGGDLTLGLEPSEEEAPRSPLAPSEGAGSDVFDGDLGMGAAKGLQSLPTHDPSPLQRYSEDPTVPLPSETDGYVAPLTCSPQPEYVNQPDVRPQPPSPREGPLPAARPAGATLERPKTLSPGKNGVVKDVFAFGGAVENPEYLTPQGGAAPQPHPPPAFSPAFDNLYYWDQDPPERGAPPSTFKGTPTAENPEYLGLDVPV
Description: as §1

[2] = Expt. A, seeding 2x10^6, p0, day 1
[3] = Expt. A, seeding 2x10^6, p0, day 4
[4] = Expt. A, seeding 2x10^6, p1, day 4
[5] = Expt. B, seeding 2x10^6, p0, day 1
[6] = Expt. B, seeding 2x10^6, p0, day 5, +/-Y27632 = inhibitor removed after 24 hours, listed as +/-Y27632
[7] = Expt. B, seeding 2x10^6, p0, day 5, +/-Y27632 = inhibitor removed after 24 hours, listed as +Y27632
[8] = Expt. C, seeding 1x10^6, p0, day 1
[9] = Expt. C, seeding 1x10^6, p0, day 5
[10] = Expt. C, seeding 2x10^6, p0, day 1
[11] = Expt. C, seeding 2x10^6, p0, day 5
[12] = Expt. C, seeding 2.5x10^5, p0, day 1
[13] = Expt. C, seeding 2.5x10^5, p0, day 5
[14] = Expt. C, seeding 5x10^5, p0, day 1
[15] = Expt. C, seeding 5x10^5, p0, day 5
[16] = Expt. C, seeding 10^5, p0, day 1
[17] = Expt. C, seeding 10^5, p0, day 5

C[C@@H](N)[C@H]1CC[C@H](C(=O)Nc2ccncc2)CC1 [Y27632]
cell survival [1]: supported cell survival | expansion of viable cells (BG02 cells; 10 µM Y27632, seeded with 1x10^5 cells, day 5): approximately 13 fold | initial aggregation in suspension culture (BG02 cells; 10 µM, compared to medium without inhibitor): much larger aggregates were formed | differentiation state by RT-PCR (BG02 cells; BG02 suspension culture in the presence of Y27632): remained undifferentiated | cell number when the aggregates were split again (BG02 cells; Expt. A, p1, vs without inhibitor): almost twice as many cells were observed | Cell counts: total (BG02 cells; [2]): 1.6x10^6 | Cell counts: viable (BG02 cells; [2]): 1.2x10^6 | Cell counts: viable, % (BG02 cells; [2]): 74% | Cell counts: total (BG02 cells; [3]): 7.8x10^6 | Cell counts: viable (BG02 cells; [3]): 7.1x10^6 | Cell counts: viable, % (BG02 cells; [3]): 91% | Cell counts: total (BG02 cells; [4]): 4.6x10^6 | Cell counts: viable (BG02 cells; [4]): 4.2x10^6 | Cell counts: viable, % (BG02 cells; [4]): 91% | Cell counts: total (BG02 cells; [5]): 1.9x10^6 | Cell counts: viable (BG02 cells; [5]): 1.4x10^6 | Cell counts: viable, % (BG02 cells; [5]): 73% | Cell counts: total (BG02 cells; [6]): 1.9x10^7 | Cell counts: viable (BG02 cells; [6]): 1.8x10^7 | Cell counts: viable, % (BG02 cells; [6]): 96% | Cell counts: total (BG02 cells; [7]): 1.5x10^7 | Cell counts: viable (BG02 cells; [7]): 1.4x10^7 | Cell counts: viable, % (BG02 cells; [7]): 92% | Cell counts: total (BG02 cells; [8]): 8.7x10^5 | Cell counts: viable (BG02 cells; [8]): 6.6x10^5 | Cell counts: viable, % (BG02 cells; [8]): 76% | Cell counts: total (BG02 cells; [9]): 8.6x10^6 | Cell counts: viable (BG02 cells; [9]): 7.8x10^6 | Cell counts: viable, % (BG02 cells; [9]): 91% | Cell counts: total (BG02 cells; [10]): 1.9x10^6 | Cell counts: viable (BG02 cells; [10]): 1.6x10^6 | Cell counts: viable, % (BG02 cells; [10]): 84% | Cell counts: total (BG02 cells; [11]): 1.4x10^7 | Cell counts: viable (BG02 cells; [11]): 1.2x10^7 | Cell counts: viable, % (BG02 cells; [11]): 90% | Cell counts: total (BG02 cells; [12]): 2.6x10^5 | Cell counts: viable (BG02 cells; [12]): 2.3x10^5 | Cell counts: viable, % (BG02 cells; [12]): 91% | Cell counts: total (BG02 cells; [13]): 2.7x10^6 | Cell counts: viable (BG02 cells; [13]): 2.5x10^6 | Cell counts: viable, % (BG02 cells; [13]): 91% | Cell counts: total (BG02 cells; [14]): 4.6x10^5 | Cell counts: viable (BG02 cells; [14]): 3.5x10^5 | Cell counts: viable, % (BG02 cells; [14]): 75% | Cell counts: total (BG02 cells; [15]): 5.7x10^6 | Cell counts: viable (BG02 cells; [15]): 5.3x10^6 | Cell counts: viable, % (BG02 cells; [15]): 93% | Cell counts: total (BG02 cells; [16]): 6.8x10^4 | Cell counts: viable (BG02 cells; [16]): 5.4x10^4 | Cell counts: viable, % (BG02 cells; [16]): 79% | Cell counts: total (BG02 cells; [17]): 1.4x10^6 | Cell counts: viable (BG02 cells; [17]): 1.3x10^6 | Cell counts: viable, % (BG02 cells; [17]): 92% | yield of cells generated by day 5 (ES cells): increased the yield of cells generated by day 5 in all conditions

CC(C)(C)c1cc(/C=C(\C#N)C(N)=S)cc(C(C)(C)C)c1O [AG879]
cell growth (BGOlv cells; at 5 µM, 5 days): substantially inhibited cell growth; also recorded: substantially slowed cell growth | cell death (BGOlv cells; at 20 µM): caused cell death | differentiation (BGOlv cells; cultures grown in AG879): inhibit proliferation without inducing differentiation | proliferation (R1 mouse ES cells; at 20 µM): may have slowed proliferation | cell growth (R1 mouse ES cells; at 50 µM): substantially inhibited cell growth | differentiation (R1 mouse ES cells; mESCs grown in AG879): did not appear to differentiate | concentration required to inhibit proliferation, mESCs relative to BG01v cells (R1 mouse ES cells; mESCs vs BG01v cells grown in defined conditions): ~10 x

COc1cc(C=C(C#N)C(N)=O)cc(CSc2nc3ccccc3s2)c1O [AG825, tyrphostin AG825]
proliferation (BG02 hESCs; 50 µM, conditioned medium (CM)): significantly inhibited proliferation | time viable hESCs could be maintained (BG02 hESCs; in presence of AG825): > 5 days | autophosphorylation of ErbB2 at tyrosine-1248 (ErbB2): inhibited autophosphorylation of ErbB2 at tyrosine-1248; also recorded: inhibits ErbB2 Y1248 phosphorylation

COc1cc2ncnc(Nc3cccc(Cl)c3)c2cc1OC [AG1478]
cell proliferation (BGOlv cells; 50 nM-20 µM, 5 days, DC medium): neither DMSO nor AG1478 (50 nM-20 µM) had an apparent affect on cell proliferation; also recorded: did not appear to affect proliferation | cell proliferation (R1 mouse ES cells; 1-50 µM, 8 days, 10% FBS, 10% KSR, LIF): no apparent affect on cell proliferation; also recorded: did not overtly inhibit proliferation
